Test results reported in US20250304587A1, “WEE1 INHIBITOR, PREPARATION THEREFOR AND USE THEREOF” (JIANGSU TASLY DIYI PHARMACEUTICAL CO., LTD., priority 2022, published 2025).
Like-named read-outs stand apart in the source and are kept apart here.

How the values were obtained:
[1] = Metabolic stability in liver microsomes, monkey; assay type: in vitro ADME
Experimental: (§1) Microsomes were taken out from the −80° C. refrigerator, rapidly melted in a 37° C. water bath and placed on ice until ready to use. The test article was diluted with DMSO to prepare a 10 mM stock solution, and then diluted with acetonitrile to a 0.5 mM secondary stock solution. […] NADPH was diluted with Buffer C to a working solution of 6 mM for the starter solution. An acetonitrile solution containing an internal standard was prepared as the precipitant, and Verapamil-HCl was chosen as the internal standard at a concentration of 4 ng/ml. […] A separate plate with pointed bottom wells, noted as a precipitation plate, was added with 135 μL precipitant per well; 0 h samples were transferred to the plate after 10 min incubation and 15 μL of starter solution was added; the plate was placed on ice before centrifugation. The diluted starter solution was added in sufficient quantity to the dispensing plate to facilitate the multichannel pipette aspiration operation. The reaction was carried out on a warm incubation shaker and 15 μL of starter solution/sample is added to the plate using a multichannel pipette. The reaction was mixed with a slight shake to initiate the reaction, which was accurately timed and recorded using a timer; After the reaction time had elapsed, all the solution in the plate was aspirated using the multichannel pipette and added to the precipitation plate to terminate the reaction at that point in time. After all reactions had been terminated, the plates were shaken for ten minutes on a plate shaker at 600 rpm to precipitate the protein. The plate was centrifuged at 4° C. for 15 minutes at maximum rpm. 80 μL of supernatant was taken, 320 μL of pure water was added and mixed for LC-MS analysis.

[2] = Pharmacokinetics on single dose in rats (iv and po); assay type: in vivo, male SD rats
Experimental: Pharmacokinetic properties of the drug in male SD rats were evaluated by the same method with in vivo pharmacokinetic study with mice.

[3] = Metabolic stability in liver microsomes, dog; assay type: in vitro ADME
Experimental: as §1

[4] = Metabolic stability in liver microsomes, human; assay type: in vitro ADME
Experimental: as §1, with “Test Example 3: Evaluation of the Metabolic Stability of Liver Microsomes (Mouse and Human) In Vitro Microsomes” for “Microsomes”

[5] = test system: human pancreatic cancer BxPC3 cells xenograft; assay: Anti-tumor efficacy, BxPC3 xenograft (CDX model); assay type: in vivo, female BALB/c nude mice; conditions: after 40 days
Experimental: Experimental method: BALB/c nude mice (provided by Charles River) were selected, 7-8 weeks old and weighing 19-22 g.
The prepared and cultured BxPC3 cells were counted, and 1×10^7 BxPC3 cells were mixed in 0.1 mL PBS solution and inoculated subcutaneously on the right wing of mice. When the cells became tumors and the average tumor volume reached 190 mm^3, they began to be grouped and administered. […] The experimental indicator was to check whether the tumor growth was inhibited. The formula for calculating the tumor volume was: V=0.5a×b^2, where a and b respectively indicated the long and short diameters of the tumor.
The anti-tumor effects of the compounds were evaluated by TGI (%).

[6] = Metabolic stability in liver microsomes, mouse; assay type: in vitro ADME
Experimental: as §1, with “Test Example 3: Evaluation of the Metabolic Stability of Liver Microsomes (Mouse and Human) In Vitro Microsomes” for “Microsomes”

[7] = test system: plasma protein; assay: Plasma protein binding (equilibrium dialysis), rat; assay type: in vitro ADME; conditions: 1 μM, 5 h dialysis
[8] = rat, in vivo; for Death Numbers / Death Rate: SD, 14 days
[9] = Plasma protein binding (equilibrium dialysis), rat; assay type: in vitro ADME; conditions: 5 h dialysis, read-out: Plasma Protein binding (PPB) Rat (converted)
[10] = male, rat, plasma, SD rats, iv 1 mg/kg
[11] = male, rat, plasma, SD rats, po 10 mg/kg

SMILES: [2H][C@]1(O)c2nc(-n3c4nc(Nc5ccc(N6CCC7(CCN(C)CC7)CC6)cc5)ncc4c(=O)n3CC=C)ccc2CCC12CC2 [Compound 37b]
- T1/2 liver microsomes Monkey [1]: 37.98 min
- AUClast ([2]; SD rats, iv 1 mg/kg): 471 ng·h/mL
- C0 ([2]; SD rats, iv 1 mg/kg): 313.2 ng/mL
- T1/2 ([2]; SD rats, iv 1 mg/kg): 3.97 h
- AUClast ([2]; SD rats, po 10 mg/kg): 1131 ng·h/mL
- Cmax ([2]; SD rats, po 10 mg/kg): 188.6 ng/mL
- F ([2]; SD rats, po 10 mg/kg): 24.01%
- Tmax ([2]; SD rats, po 10 mg/kg): 2.67 h
- Drug exposure (in words) ([2]; rats, compared with AZD1775): obvious advantages in drug exposure
- T1/2 liver microsomes Dog [3]: 69.59 min
- T1/2 liver microsomes Human [4]: >120 min
- TGI ([5]; 30 mg/kg qd): 70.1%
- TGI ([5]; 60 mg/kg qd): 72.4%
- TGI ([5]; 120 mg/kg qd): 100.9%
- T1/2 liver microsomes Mouse [6]: 37.8 min
- Plasma Protein binding (PPB) Rat [7]: 84.10%
- Maximum tolerated dose (in words) [8]: higher than that of the control compound AZD1775

SMILES: C=CCn1c(=O)c2cnc(Nc3ccc(N4CCN(C)CC4)cc3)nc2n1-c1cccc(C(C)(C)O)n1 [AZD1775, reference compound]
- half-life at 1 µM ([1]; read-out: T1/2 liver microsomes Monkey): 20.1 min
- Cl ([2]; SD rats, po 10 mg/kg): 10.25 L/h/kg
- F ([2]; SD rats, po 10 mg/kg): 121.8%
- AUC(0-t) [2, 10]: 72.3 ng·h/mL
- clearance [2, 10]: 148 mL/min/kg
- half-life [2, 10]: 54.6 min
- C0 ([2]; male, rat, plasma, SD rats, iv 1 mg/kg, read-out: C0): 101 ng/mL
- AUC(0-t) [2, 11]: 881 ng·h/mL
- half-life [2, 11]: 161 min
- Cmax ([2]; male, rat, plasma, SD rats, po 10 mg/kg, read-out: Cmax): 188 ng/mL
- half-life at 1 µM ([3]; read-out: T1/2 liver microsomes Dog): 10.8 min
- half-life at 1 µM ([4]; read-out: T1/2 liver microsomes Human): 38.1 min
- TGI ([5]; 60 mg/kg qd): 57.6%
- half-life at 1 µM ([6]; read-out: T1/2 liver microsomes Mouse): 26 min
- fraction unbound at 5 h, 1 µM [9]: 0.374
- Death Numbers ([8]; female, 100 mg/kg): 0
- Death Rate ([8]; female, 100 mg/kg): 0%
- Death Numbers ([8]; female, 200 mg/kg): 0
- Death Rate ([8]; female, 200 mg/kg): 0%
- Death Numbers ([8]; female, 300 mg/kg): 2
- Death Rate ([8]; female, 300 mg/kg): 67%
- Death Numbers ([8]; male, 100 mg/kg): 0
- Death Rate ([8]; male, 100 mg/kg): 0%
- Death Numbers ([8]; male, 200 mg/kg): 0
- Death Rate ([8]; male, 200 mg/kg): 0%
- Death Numbers ([8]; male, 300 mg/kg): 0
- Death Rate ([8]; male, 300 mg/kg): 0%
